Laboratory results from ChEMBL document CHEMBL3044944, “Synthesis and evaluation of meta substituted 1-(aryloxypropyl)-4-(chloroaryl) piperazines as potential atypical antipsychotics” (2013).
Activity calls are given as the source filed them. No cut-off for these calls is given here.

Columns and labels:
Mus musculus [1] = test: Antipsychotic activity in Mus musculus albino lyka (mouse) assessed as reversal of apomorphine-induced stereotypy at 5 to 10 mg/kg, ip administered 10 min prior to apomorphine challenge measured after 10 to 30 min; format: functional, organism-based
Mus musculus [2] = test: Antipsychotic activity in ip dosed Mus musculus albino lyka (mouse) assessed as reversal of apomorphine-induced mesh climbing administered 10 min prior to apomorphine challenge measured after 10 to 30 min; format: functional; details: for ED50: Mus musculus, albino lyka, ip
Mus musculus [3] = test: Antipsychotic activity in Mus musculus albino lyka (mouse) assessed as reversal of apomorphine-induced mesh climbing at 5 to 10 mg/kg, ip administered 10 min prior to apomorphine challenge measured after 10 to 30 min; format: functional, organism-based

| Compound | Activity (Mus musculus [1]) | logED50 (Mus musculus [2]) | ED50 (Mus musculus [2]) | Activity (Mus musculus [3]) |
| --- | --- | --- | --- | --- |
| O=Cc1cccc(OCCCN2CCN(Cc3ccc(Cl)cc3)CC2)c1 | Active | 1 | 10 mg/kg | – |
| CC(=O)c1cccc(OCCCN2CCN(C(=O)c3ccccc3Cl)CC2)c1 | Active | – | – | inactive |
| O=Cc1cccc(OCCCN2CCN(Cc3ccccc3Cl)CC2)c1 | inactive | 0.799 | 6.3 mg/kg | – |
| CC(=O)c1cccc(OCCCN2CCN(Cc3ccc(Cl)cc3)CC2)c1 | inactive | 0.857 | 7.2 mg/kg | – |
| CC(=O)c1cccc(OCCCN2CCN(C(=O)c3ccc(Cl)cc3)CC2)c1 | Active | – | – | inactive |
| O=Cc1cccc(OCCCN2CCN(C(=O)c3ccc(Cl)cc3)CC2)c1 | Active | – | – | inactive |
| CC(=O)c1cccc(OCCCN2CCN(Cc3ccccc3Cl)CC2)c1 | inactive | 0.903 | 8 mg/kg | – |
| O=Cc1cccc(OCCCN2CCN(C(=O)c3ccccc3Cl)CC2)c1 | Active | – | – | inactive |
